What was measured:
MDA-MB-231/ATCC = assay: panel of 60 human tumor cell lines, growth inhibition (Breast Cancer); details: Homo sapiens; for GI50: MDA-MB-231; for CC50: MDA-MB-231, read-out: LC50; for IC (TGI): MDA-MB-231, read-out: TGI
CCRF-CEM = assay: panel of 60 human tumor cell lines, growth inhibition (Leukemia); details: Homo sapiens; for CC50: read-out: LC50; for IC (TGI): read-out: TGI
SN12C = assay: panel of 60 human tumor cell lines, growth inhibition (Renal Cancer); details: Homo sapiens; for CC50: read-out: LC50; for IC (TGI): read-out: TGI
NCI-H226 = assay: panel of 60 human tumor cell lines, growth inhibition (Non-Small Cell Lung Cancer); details: Homo sapiens; for GI50: NCI-H226; for CC50: NCI-H226, read-out: LC50
HCC-2998 = assay: panel of 60 human tumor cell lines, growth inhibition (Colon Cancer); details: Homo sapiens; for GI50: HCC 2998; for CC50: HCC 2998, read-out: LC50; for IC (TGI): HCC 2998, read-out: TGI
MCF7 = assay: panel of 60 human tumor cell lines, growth inhibition (Breast Cancer); details: Homo sapiens; for GI50: MCF7, MCF7; for CC50: MCF7, read-out: LC50; for IC (TGI): MCF7, read-out: TGI
UO-31 = assay: panel of 60 human tumor cell lines, growth inhibition (Renal Cancer); details: Homo sapiens; for GI50: UO-31; for CC50: UO-31, read-out: LC50; for IC (TGI): UO-31, read-out: TGI
ACHN = assay: as above; details: Homo sapiens; for CC50: read-out: LC50; for IC (TGI): read-out: TGI
MDA-MB-435 = assay: panel of 60 human tumor cell lines, growth inhibition (Melanoma); details: Homo sapiens; for GI50: MDA-MB-435; for CC50: MDA-MB-435, read-out: LC50; for IC (TGI): MDA-MB-435, read-out: TGI
SK-MEL-5 = assay: as above; details: Homo sapiens; for GI50: SK-MEL-5; for CC50: SK-MEL-5, read-out: LC50; for IC (TGI): SK-MEL-5, read-out: TGI
LOX IMVI = assay: as above; details: Homo sapiens; for CC50: read-out: LC50; for IC (TGI): read-out: TGI
786-0 = assay: panel of 60 human tumor cell lines, growth inhibition (Renal Cancer); details: Homo sapiens; for GI50: 786-0; for CC50: 786-0, read-out: LC50; for IC (TGI): 786-0, read-out: TGI
SR = assay: panel of 60 human tumor cell lines, growth inhibition (Leukemia); details: Homo sapiens; for CC50: read-out: LC50; for IC (TGI): read-out: TGI
OVCAR-8 = assay: panel of 60 human tumor cell lines, growth inhibition (Ovarian Cancer); details: Homo sapiens; for GI50: OVCAR-8; for CC50: OVCAR-8, read-out: LC50; for IC (TGI): OVCAR-8, read-out: TGI
NCI-H460 = assay: panel of 60 human tumor cell lines, growth inhibition (Non-Small Cell Lung Cancer); details: Homo sapiens; for GI50: NCI-H460; for CC50: NCI-H460, read-out: LC50; for IC (TGI): NCI-H460, read-out: TGI
U251 = assay: panel of 60 human tumor cell lines, growth inhibition (CNS Cancer); details: Homo sapiens; for GI50: U-251; for CC50: U-251, read-out: LC50; for IC (TGI): U-251, read-out: TGI
SK-OV-3 = assay: panel of 60 human tumor cell lines, growth inhibition (Ovarian Cancer); details: Homo sapiens; for GI50: SK-OV-3; for CC50: SK-OV-3, read-out: LC50; for IC (TGI): SK-OV-3, read-out: TGI
HOP-62 = assay: panel of 60 human tumor cell lines, growth inhibition (Non-Small Cell Lung Cancer); details: Homo sapiens; for GI50: HOP-62; for CC50: HOP-62, read-out: LC50
M14 = assay: panel of 60 human tumor cell lines, growth inhibition (Melanoma); details: Homo sapiens; for GI50: M14; for CC50: M14, read-out: LC50; for IC (TGI): M14, read-out: TGI

C=C1C(=O)O[C@H]2[C@H]1CC/C(COC(=O)OCCCN1CCCCC1)=C\CC[C@@]1(C)O[C@@H]21 [JVM 2-26]
GI50 (MDA-MB-231/ATCC): 3.73 µM
CC50 (MDA-MB-231/ATCC): 49.4 µM
IC (TGI) (MDA-MB-231/ATCC): 16.2 µM
GI50 (CCRF-CEM): 1.78 µM
CC50 (CCRF-CEM): 63.5 µM
IC (TGI) (CCRF-CEM): 5.72 µM
GI50 (SN12C): 8.41 µM
CC50 (SN12C): 55.2 µM
IC (TGI) (SN12C): 22.7 µM
GI50 (NCI-H226): 4.43 µM
CC50 (NCI-H226): 79.8 µM
GI50 (HCC-2998): 14.4 µM
CC50 (HCC-2998): 60.1 µM
IC (TGI) (HCC-2998): 19.4 µM
GI50 (MCF7): 2.3 µM
CC50 (MCF7): 50.8 µM
IC (TGI) (MCF7): 10.7 µM
GI50 (UO-31): 2.36 µM
CC50 (UO-31): 46.3 µM
IC (TGI) (UO-31): 12.5 µM
GI50 (ACHN): 2.14 µM
CC50 (ACHN): 31.5 µM
IC (TGI) (ACHN): 8.06 µM
GI50 (MDA-MB-435): 2.99 µM
CC50 (MDA-MB-435): 38.5 µM
IC (TGI) (MDA-MB-435): 13.2 µM
GI50 (SK-MEL-5): 10.6 µM
CC50 (SK-MEL-5): 47.6 µM
IC (TGI) (SK-MEL-5): 22.5 µM
GI50 (LOX IMVI): 3.15 µM
CC50 (LOX IMVI): 37.8 µM
IC (TGI) (LOX IMVI): 11.7 µM
GI50 (786-0): 2.48 µM
CC50 (786-0): 37.3 µM
IC (TGI) (786-0): 11.1 µM
GI50 (SR): 2.12 µM
CC50 (SR): 83.9 µM
IC (TGI) (SR): 10.2 µM
GI50 (OVCAR-8): 10.3 µM
CC50 (OVCAR-8): 53.3 µM
IC (TGI) (OVCAR-8): 13.5 µM
GI50 (NCI-H460): 16.7 µM
CC50 (NCI-H460): 77.5 µM
IC (TGI) (NCI-H460): 36 µM
GI50 (U251): 16.7 µM
CC50 (U251): 62.7 µM
IC (TGI) (U251): 32.4 µM
GI50 (SK-OV-3): 21 µM
CC50 (SK-OV-3): > 100 µM
IC (TGI) (SK-OV-3): 53.7 µM
GI50 (HOP-62): 15.3 µM
CC50 (HOP-62): 57.7 µM
IC (TGI) (HOP-62; HOP-62, read-out: TGI): 19.8 µM
GI50 (M14): 3.85 µM
CC50 (M14): 41.1 µM
IC (TGI) (M14): 15.5 µM

C=C1C(=O)O[C@H]2[C@H]1CC/C(COC(=S)n1ccnc1)=C\CC[C@@]1(C)O[C@@H]21 [JVM 66]
GI50 (MDA-MB-231/ATCC): 15.8 µM
CC50 (MDA-MB-231/ATCC): 75.7 µM
IC (TGI) (MDA-MB-231/ATCC): 34.6 µM
GI50 (CCRF-CEM; NCI five dose): 3.38 µM
CC50 (CCRF-CEM): > 100 µM
IC (TGI) (CCRF-CEM): 16.6 µM
GI50 (SN12C): 13.7 µM
CC50 (SN12C): 85.3 µM
IC (TGI) (SN12C): 18.8 µM
GI50 (NCI-H226): 99.6 µM
CC50 (NCI-H226): > 100 µM
IC (TGI) (NCI-H226; NCI-H226, read-out: TGI): > 100 µM
GI50 (HCC-2998): 16.8 µM
CC50 (HCC-2998): 63.2 µM
IC (TGI) (HCC-2998): 12.6 µM
GI50 (MCF7; NCI five dose): 4.19 µM
CC50 (MCF7): 76.7 µM
IC (TGI) (MCF7): 19.8 µM
GI50 (UO-31): 8.37 µM
CC50 (UO-31): 58.1 µM
IC (TGI) (UO-31): 23.4 µM
GI50 (ACHN): 6.73 µM
CC50 (ACHN): 50.7 µM
IC (TGI) (ACHN): 20.4 µM
GI50 (MDA-MB-435): 16.7 µM
CC50 (MDA-MB-435): > 100 µM
IC (TGI) (MDA-MB-435): 43.8 µM
GI50 (SK-MEL-5): 13.3 µM
CC50 (SK-MEL-5): 55.6 µM
IC (TGI) (SK-MEL-5): 27.7 µM
GI50 (LOX IMVI; NCI five dose): 3.23 µM
CC50 (LOX IMVI): 43.1 µM
IC (TGI) (LOX IMVI): 11.8 µM
GI50 (786-0): 16.8 µM
CC50 (786-0): 85.7 µM
IC (TGI) (786-0): 37.9 µM
GI50 (SR): 6.17 µM
CC50 (SR): > 100 µM
IC (TGI) (SR): 38.5 µM
GI50 (OVCAR-8): 11.4 µM
CC50 (OVCAR-8): > 100 µM
IC (TGI) (OVCAR-8): > 100 µM
GI50 (NCI-H460): 15.7 µM
CC50 (NCI-H460): > 100 µM
IC (TGI) (NCI-H460): 71.4 µM
GI50 (U251): 32.5 µM
CC50 (U251): > 100 µM
IC (TGI) (U251): > 100 µM
GI50 (SK-OV-3): 61.4 µM
CC50 (SK-OV-3): > 100 µM
IC (TGI) (SK-OV-3): > 100 µM
GI50 (HOP-62): 36.5 µM
CC50 (HOP-62): > 100 µM
GI50 (M14): 12.6 µM
CC50 (M14): 89.2 µM
IC (TGI) (M14): 33.6 µM
